Source: publication PMC5653977 (EMBO Molecular Medicine, 2017)
Where a name gives a salt, the structure may show the parent alone. Read-outs that look alike come from different tables or passages of the source. Where a SMILES comes first, the peptide text is derived from it. [ ]: non-standard residue; d: D form. pGlu = O=C1CC[C@@H](C(=O)O)N1; Thz = O=C(O)[C@@H]1CSCN1

System: NRG1-ERBB4 signaling
Assay: Nrg1-ERBB4-PIK3R1 split TEV co-culture compound screen of the NIH Clinical Collection
Type: cell-based, human
[1] = compound screen of the NIH Clinical Collection, sheet raw data NCC-003, compounds ranked by Z-score
[2] = compounds at 10 μM, 24 h, PC12 split TEV assay cells co-cultured with Nrg1-expressing PC12 cells, analysed with cellHTS2
[3] = NIH Clinical Collection NCC-003 raw data, compounds ranked by Z-score, 'flagged' given instead of a Z-score

| Compound | Z-SCORE [1] | also measured |
| --- | --- | --- |
| COc1ccc2cc([C@H](C)C(=O)O)ccc2c1 [NAPROXEN SODIUM] | 0.35 |  |
| CC(C)[C@H]1CC[C@H](C(=O)N[C@H](Cc2ccccc2)C(=O)O)CC1 [NATEGLINIDE] | -0.03 |  |
| Cc1c(O)cccc1C(=O)N[C@@H](CSc1ccccc1)[C@H](O)CN1C[C@H]2CCCC[C@H]2C[C@H]1C(=O)NC(C)(C)C [NELFINAVIR MESYLATE] | 0.24 |  |
| O=C(CCNNC(=O)c1ccncc1)NCc1ccccc1 [NIALAMIDE] | 1.7 |  |
| O=C(NCCO[N+](=O)[O-])c1cccnc1 [NICORANDIL] | -0.09 |  |
| NC(=O)c1cccnc1 [NICOTINAMIDE] | 2.52 |  |
| CN1CCC[C@H]1c1cccnc1 [NICOTINE, reference compound] |  | Z-SCORE [2]: -0.12 |
| COC(=O)C1=C(C)NC(C)=C(C(=O)OC)C1c1ccccc1[N+](=O)[O-] [NIFEDIPINE] | 2.68 |  |
| Cl.Cn1c(NCCN(CCO)CCCc2ccc([N+](=O)[O-])cc2)cc(=O)n(C)c1=O [NIFEKALANT HCl] | 1.92 |  |
| COCCOC(=O)C1=C(C)NC(C)=C(C(=O)OC(C)C)C1c1cccc([N+](=O)[O-])c1 (centres unmarked) [NIMODIPINE] | -0.83 |  |
| COC(=O)C1=C(C)NC(C)=C(C(=O)OCC(C)C)C1c1ccccc1[N+](=O)[O-] (centres unmarked) [NISOLDIPINE] | 2.32 |  |
| CC(=O)Oc1ccccc1C(=O)Nc1ncc([N+](=O)[O-])s1 [NITAZOXANIDE] | 1.04 |  |
| CCOC(=O)C1=C(C)NC(C)=C(C(=O)OC)C1c1cccc([N+](=O)[O-])c1 (centres unmarked) [NITRENDIPINE] |  | Z-SCORE [3]: -1.82 |
| O=C1CN(/N=C/c2ccc([N+](=O)[O-])o2)C(=O)N1 [NITROFURANTOIN, reference compound] |  | Z-SCORE [2]: -0.02 |
| CNC(=C[N+](=O)[O-])NCCSCc1csc(CN(C)C)n1 [NIZATIDINE] | -0.53 |  |
| CCn1cc(C(=O)O)c(=O)c2cc(F)c(N3CCNCC3)cc21 [NORFLOXACIN, reference compound] |  | Z-SCORE [2]: -0.08 |
| N[C@H](Cc1cc(I)c(Oc2ccc(O)c(I)c2)c(I)c1)C(=O)O [NSC46046, reference compound] |  | Z-SCORE [2]: -1.87 |
| CCCCN1CCCC1CNC(=O)c1cc(C#N)c2ccccc2c1OC (centres unmarked) [Nafadotride] | -0.24 |  |
| Oc1ccc2c3c1O[C@H]1[C@@H](O)CC[C@@]4(O)[C@@H](C2)N(CC2CCC2)CC[C@]314 [Nalbuphine] |  | Z-SCORE: -1.86 |
| CCn1cc(C(=O)O)c(=O)c2ccc(C)nc21 [Nalidixic Acid, reference compound] |  | Z-SCORE [2]: 0.31 |
| Oc1ccc2c3c1O[C@H]1c4[nH]c5ccccc5c4C[C@@]4(O)[C@@H](C2)N(CC2CC2)CC[C@]314 [Naltrindole] | -0.41 |  |
| CCc1nn(CCCN2CCN(c3cccc(Cl)c3)CC2)c(=O)n1CCOc1ccccc1 [Nefazodone] | -0.63 |  |
| O=C(O)c1cccnc1 [Nicotinic Acid, reference compound] |  | Z-SCORE [2]: -0.31 |
| CN1C(=O)CN=C(c2ccccc2)c2cc([N+](=O)[O-])ccc21 [Nimetazepam] | 0.16 |  |
| O=C1CN=C(c2ccccc2)c2cc([N+](=O)[O-])ccc2N1 [Nitrazepam] | -0.23 |  |
| COc1ccc(-c2cc(=O)c3c(OC)c(OC)c(OC)c(OC)c3o2)cc1OC [Nobiletin] | -0.05 |  |

| Compound | Z-SCORE [1] | also measured |
| --- | --- | --- |
| Cc1ccccc1C(OCCN(C)C)c1ccccc1 (centres unmarked) [Norflex, reference compound] |  | Z-SCORE [2]: 0.74 |
| c1cncc([C@@H]2CCCN2)c1 [Nornicotine] | 0.27 |  |
| CC(C)N(CCC(C(N)=O)(c1ccccc1)c1ccccn1)C(C)C (centres unmarked) [Norpace, reference compound] |  | Z-SCORE [2]: 0.73 |
| CNCCCN1c2ccccc2CCc2ccccc21 [Norpramin, reference compound] |  | Z-SCORE [2]: -3.45 |
| CCN(CC)CCOC(=O)c1ccc(N)cc1 [Novocain, reference compound] |  | Z-SCORE [2]: -0.44 |
| CC1COc2c(N3CCN(C)CC3)c(F)cc3c(=O)c(C(=O)O)cn1c23 (centres unmarked) [OFLOXACIN, reference compound] |  | Z-SCORE [2]: 0.8 |
| Cc1cc2c(s1)Nc1ccccc1N=C2N1CCN(C)CC1 [OLANZAPINE] | -0.89 |  |
| CCCc1nc(C(C)(C)O)c(C(=O)OCc2oc(=O)oc2C)n1Cc1ccc(-c2ccccc2-c2nnn[nH]2)cc1 [OLMESARTAN MEDOXOMIL] | 0.84 |  |
| CN(C)CC/C=C1/c2ccccc2COc2ccc(CC(=O)O)cc21 [OLOPATADINE HCl] | 0.55 |  |
| COc1ccc2[nH]c([S+]([O-])Cc3ncc(C)c(OC)c3C)nc2c1 (centres unmarked) [OMEPRAZOLE] | -0.26 |  |
| Cc1nccn1CC1CCc2c(c3ccccc3n2C)C1=O.Cl (centres unmarked) [ONDANSETRON HYDROCHLORIDE] | 0.51 |  |
| CCCCCCCCCCC[C@@H](C[C@@H]1OC(=O)[C@H]1CCCCCC)OC(=O)[C@H](CC(C)C)NC=O [ORLISTAT] | 0.19 |  |
| COc1cc(C)c(Cc2cnc(N)nc2N)cc1OC [ORMETOPRIM] | 1.63 |  |
| Cc1ncc([N+](=O)[O-])n1CC(O)CCl (centres unmarked) [ORNIDAZOLE] | 2.22 |  |
| O=C(O)CCc1nc(-c2ccccc2)c(-c2ccccc2)o1 [OXAPROZIN] | 0.6 |  |
| Clc1ccc(CO/N=C(\Cn2ccnc2)c2ccc(Cl)cc2Cl)c(Cl)c1 [OXICONAZOLE NITRATE] |  | Z-SCORE [3]: -1.71 |
| CCN(CC)CC#CCOC(=O)C(O)(c1ccccc1)C1CCCCC1 (centres unmarked) [OXYBUTYNIN CHLORIDE, reference compound] |  | Z-SCORE [2]: -0.59 |
| CC[N+](C)(CC)CCOC(=O)C(O)(c1ccccc1)C1CCCCC1 (centres unmarked) [OXYPHENONIUM BROMIDE] | -0.45 |  |
| Cc1nccn1CC1CCc2c(c3ccccc3n2C)C1=O (centres unmarked) [Ondansetron, reference compound] |  | Z-SCORE [2]: 0.12 |
| C[C@]12C/C(=C/O)C(=O)C[C@@H]1CC[C@@H]1[C@@H]2CC[C@@]2(C)[C@H]1CC[C@]2(C)O [Oxymetholone] | 1.79 |  |
| CN(C)[C@@H]1C(O)=C(C(N)=O)C(=O)[C@@]2(O)C(O)=C3C(=O)c4c(O)cccc4[C@@](C)(O)[C@H]3[C@H](O)[C@@H]12 [Oxytetracycline hydrochloride, reference compound] |  | Z-SCORE [2]: 0.67 |
| Cl.O=C(O)/C=C/c1ccc(Cn2ccnc2)cc1 [Ozagrel hydrochloride] | 0.36 |  |
| O=C1c2cccc3c2[C@H](CCC3)CN1[C@@H]1CN2CCC1CC2 [PALONOSETRON HCl] | 0.77 |  |
| COc1ccnc(C[S+]([O-])c2nc3cc(OC(F)F)ccc3[n-]2)c1OC.[Na+] (centres unmarked) [PANTOPRAZOLE SODIUM SALT] | 1.42 |  |
| CCC(=O)[N-]S(=O)(=O)c1ccc(-c2c(-c3ccccc3)noc2C)cc1.[Na+] [PARECOXIB Na] | -0.3 |  |
| C[C@H]1COc2c(C3(N)CC3)c(F)cc3c(=O)c(C(=O)O)cn1c23 [PAZUFLOXACIN] | -0.48 |  |

| Compound | Z-SCORE [1] | also measured |
| --- | --- | --- |
| Cc1sc(N)c(C(=O)c2cccc(C(F)(F)F)c2)c1C [PD 81723] | 0.13 |  |
| Nc1nc2c(ncn2CCC(CO)CO)c(=O)[nH]1 [PENCICLOVIR] | -0.01 |  |
| CCCN1C[C@H](CSC)C[C@@H]2c3cccc4[nH]cc(c34)C[C@H]21 [PERGOLIDE MESYLATE] | -0.4 |  |
| Cl.O=C1[C@H]2CCCC[C@H]2C(=O)N1CCCCN1CCN(c2nsc3ccccc23)CC1 [PEROSPIRONE HCl] |  | Z-SCORE [3]: -1.42 |
| OCCN1CCN(CCCN2c3ccccc3Sc3ccc(Cl)cc32)CC1 [PERPHENAZINE, reference compound] |  | Z-SCORE [2]: 0.23 |
| c1ccc2c(c1)Nc1ccccc1S2 [PHENOTHIAZINE] | -0.03 |  |
| NC(=O)OCCCc1ccccc1 [PHENPROBAMATE] | -0.62 |  |
| Cc1ccc(N(CC2=NCCN2)c2cccc(O)c2)cc1 [PHENTOLAMINE HCL, reference compound] |  | Z-SCORE [2]: -1.17 |
| OC[C@H]1O[C@@H](Oc2cc(O)cc(/C=C/c3ccc(O)cc3)c2)[C@H](O)[C@@H](O)[C@@H]1O [PICEID] | 0.85 |  |
| O=C1CC[C@@H](C(=O)N2CSC[C@H]2C(=O)O)N1 [PIDOTIMOD] ([pGlu]-[Thz]-OH) |  | Z-SCORE [3]: -1.2 |
| CC[C@@H]1C(=O)OC[C@@H]1Cc1cncn1C [PILOCARPINE HYDROCHLORIDE] | -0.77 |  |
| CC(C)NCC(O)COc1cccc2[nH]ccc12 (centres unmarked) [PINDOLOL, reference compound] |  | Z-SCORE [2]: 6.52 |
| CCc1ccc(CCOc2ccc(CC3SC(=O)NC3=O)cc2)nc1 (centres unmarked) [PIOGLITAZONE HCl] | -0.64 |  |
| CCN1CCN(C(=O)N[C@@H](C(=O)N[C@@H]2C(=O)N3[C@@H]2SC(C)(C)[C@@H]3C(=O)O)c2ccccc2)C(=O)C1=O [PIPERACILLIN SODIUM SALT, reference compound] |  | Z-SCORE [2]: 0.05 |
| Cc1nc2ccccn2c(=O)c1CCN1CCC(C(=O)c2ccc(F)cc2)CC1 [PIRENPERONE] | 1.82 |  |
| CCCN[C@H]1CCc2nc(N)sc2C1.Cl [PRAMIPEXOLE HCl] | -0.74 |  |
| CC[C@H](C)C(=O)O[C@H]1C[C@H](O)C=C2C=C[C@H](C)[C@H](CC[C@@H](O)C[C@@H](O)CC(=O)O)[C@H]21 [PRAVASTATIN Sodium] | -0.44 |  |
| O=C(C1CCCCC1)N1CC(=O)N2CCc3ccccc3C2C1 (centres unmarked) [PRAZIQUANTEL, reference compound] |  | Z-SCORE [2]: 0.38 |
| CC(=O)OCC(=O)[C@@]1(O)CC[C@H]2[C@@H]3CCC4=CC(=O)C=C[C@]4(C)[C@H]3[C@@H](O)C[C@@]21C [PREDNISOLONE ACETATE, reference compound] |  | Z-SCORE [2]: -0.58 |
| CCCNC(C)C(=O)Nc1ccccc1C (centres unmarked) [PRILOCAINE HYDROCHLORIDE, reference compound] |  | Z-SCORE [2]: 0.68 |
| CNNCc1ccc(C(=O)NC(C)C)cc1 [PROCARBAZINE HYDROCHLORIDE] | 0.52 |  |
| CC(=O)[C@H]1CC[C@H]2[C@@H]3CCC4=CC(=O)CC[C@]4(C)[C@H]3CC[C@]12C [PROGESTERONE] |  | Z-SCORE [3]: -1.2 |
| COc1cc(/C=C/c2ccc(O)cc2)cc(OC)c1 [PTEROSTILBENE] | -0.71 |  |
| C[n+]1ccccc1/C=N/O.[Cl-] [PYRIDINE-2-ALDOXIME METHOCHLORIDE, reference compound] |  | Z-SCORE [2]: 2.7 |
| CNCCC=C1c2ccccc2CCc2ccccc21 [Pamelor, reference compound] |  | Z-SCORE [2]: 0.41 |
